Here are results for 14 compounds from PubChem BioAssay (NCI).

Among the test systems are KM20L2 colon; SNB-78 CNS; UACC-257 melanoma; SF-539 CNS; HL-60(TB) leukemia; M19-MEL melanoma; DLD-1 colon.
Holding throughout (assay): NCI tumour cell line growth inhibition, 48 h

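The compound was tested at five concentrations on cells cultured in 96-well plates, with a 48-hour exposure period. The concentration for 50% growth inhibition is given as GI50. Definition used: TGI = concentration required for complete inhibition of growth.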

In the case of `COC(=O)N/N=C(/CCN1CCCC1)CC(c1ccccc1)c1c(O)c2ccccc2oc1=O` (centres undefined), the TGI in the assay on KM20L2 colon, with SNB-78 CNS, in the assay on UACC-257 melanoma, in the assay with SF-539 CNS, in the assay with HL-60(TB) leukemia and with M19-MEL melanoma was greater than 100 µM in each case. The compound also yielded a TGI in the assay on DLD-1 colon greater than 100 µM.

For the compound `CCC(C)OC(=O)C1C2CCC(O2)C1C(=O)O` (centres undefined), the TGI in the assay on KM20L2 colon is greater than 63.5 µM; with SNB-78 CNS it was greater than 100 µM; with UACC-257 melanoma, greater than 100 µM; in the assay on SF-539 CNS it was greater than 100 µM; in the assay with HL-60(TB) leukemia, greater than 100 µM; with M19-MEL melanoma it was greater than 100 µM. In the assay with DLD-1 colon, this compound yielded a TGI greater than 77.7 µM.

With `O=C(O)C(Cc1c[nH]c2ccccc12)N=Cc1nc(-c2ccccc2)oc1O` (centres undefined), the TGI in the assay on KM20L2 colon, in the assay with SNB-78 CNS, in the assay on UACC-257 melanoma, with SF-539 CNS, with HL-60(TB) leukemia and in the assay on M19-MEL melanoma was greater than 100 µM throughout. The compound further showed a TGI in the assay on DLD-1 colon greater than 100 µM.

`CN(C)C(=O)/N=c1\ss/c(=N\C(=S)N(C)C)n1-c1ccccc1`: the TGI is greater than 100 µM in the assay on KM20L2 colon; greater than 100 µM in the assay on SNB-78 CNS; 28.6 µM with UACC-257 melanoma; greater than 78.4 µM in the assay on SF-539 CNS; 44.8 µM in the assay with HL-60(TB) leukemia; greater than 100 µM in the assay with M19-MEL melanoma. In the assay on DLD-1 colon, this compound came in with a TGI greater than 100 µM. Besides, the GI50 in the assay on HL-60(TB) leukemia is 6.59 µM.

`COC(=O)C(=O)C(C(=O)C(=O)Nc1ccc(Cl)cc1C)c1nc2ccc(C(=O)c3ccccc3)cc2[nH]c1=O` (centres undefined): the TGI in the assay with KM20L2 colon, in the assay with SNB-78 CNS, with UACC-257 melanoma, with SF-539 CNS, in the assay on HL-60(TB) leukemia and in the assay on M19-MEL melanoma was greater than 100 µM in each case. In the assay with DLD-1 colon, this compound displayed a TGI greater than 100 µM.

For the compound `C=C[C@]1(C)CCC2=C(CCC3C2(C)CCC[C@]3(C)CO)C1` (some centres undefined), the TGI in the assay on KM20L2 colon was 42.3 µM; in the assay on SNB-78 CNS, greater than 100 µM; in the assay on UACC-257 melanoma it was greater than 100 µM; in the assay on SF-539 CNS it was greater than 100 µM; in the assay with HL-60(TB) leukemia it was 52.2 µM; in the assay with M19-MEL melanoma, greater than 100 µM. The TGI in the assay on DLD-1 colon is greater than 100 µM.

On to `CN=C1Nc2ccc(Cl)cc2C(c2ccccc2)=NN1C`, for which the TGI in the assay on KM20L2 colon, in the assay on SNB-78 CNS, in the assay with UACC-257 melanoma, in the assay with SF-539 CNS, in the assay with HL-60(TB) leukemia and in the assay on M19-MEL melanoma was greater than 100 µM in each case. Further, the TGI in the assay with DLD-1 colon was greater than 100 µM.

Regarding `COC(=O)C1(C(=O)OC)CC2c3c(c4ccccc4n3C)CC(C1=O)N2Cc1ccccc1` (centres undefined), the TGI in the assay on KM20L2 colon, in the assay with SNB-78 CNS, in the assay with UACC-257 melanoma, in the assay with SF-539 CNS, with HL-60(TB) leukemia and with M19-MEL melanoma was greater than 100 µM each time. Also, the TGI in the assay with DLD-1 colon is greater than 100 µM.

As for `C/C=C/C=N/N(C(=O)c1cc([N+](=O)[O-])cc([N+](=O)[O-])c1)C1=NC(c2ccccc2)C(c2ccccc2)=NN1` (centres undefined), the TGI with KM20L2 colon is 93.9 µM; with SNB-78 CNS, greater than 100 µM; with UACC-257 melanoma, 70.8 µM; with SF-539 CNS, greater than 100 µM; in the assay on HL-60(TB) leukemia it was 55.6 µM; in the assay with M19-MEL melanoma, 46.2 µM. This compound also yielded a TGI with DLD-1 colon greater than 100 µM.

For the compound `Cc1ccccc1NC(=O)C(=O)C(c1cnc2ccc([N+](=O)[O-])cc2n1)[N+](=O)[O-]` (centres undefined), the TGI in the assay on KM20L2 colon, in the assay with SNB-78 CNS, in the assay on UACC-257 melanoma, with SF-539 CNS, with HL-60(TB) leukemia and in the assay on M19-MEL melanoma was greater than 100 µM throughout. This compound also yielded a TGI with DLD-1 colon greater than 100 µM.

Take `Nc1ncnc(NC2C=C(CO)C(O)C2O)c1[N+](=O)[O-]` (centres undefined): the TGI with KM20L2 colon, in the assay with SNB-78 CNS, in the assay on UACC-257 melanoma, in the assay on SF-539 CNS, in the assay with HL-60(TB) leukemia and with M19-MEL melanoma was greater than 100 µM throughout. Besides, the TGI in the assay with DLD-1 colon is greater than 100 µM.

For `N=C1N(c2ccccc2)C(=O)C23CCCC2C13N1CCOCC1` (centres undefined), the TGI in the assay with KM20L2 colon, in the assay with SNB-78 CNS, with UACC-257 melanoma, in the assay on SF-539 CNS, in the assay with HL-60(TB) leukemia and in the assay on M19-MEL melanoma was greater than 100 µM each time. For the same compound, the TGI in the assay with DLD-1 colon was greater than 100 µM.

In the case of `COC(=O)C(C(=O)C(=O)Nc1ccccc1C(C)=O)c1nc2ccc(Cl)cc2[nH]c1=O` (centres undefined), the TGI in the assay with KM20L2 colon, with SNB-78 CNS, with UACC-257 melanoma, in the assay on SF-539 CNS, in the assay on HL-60(TB) leukemia and in the assay with M19-MEL melanoma was greater than 100 µM in each case. In the assay on DLD-1 colon, this compound showed a TGI greater than 100 µM.

For the compound `O=C(O)c1ccc(O)c(N=Nc2cc(S(=O)(=O)O)c3ccccc3c2O)c1`, the TGI in the assay on KM20L2 colon is greater than 100 µM; in the assay with SNB-78 CNS, greater than 100 µM; with UACC-257 melanoma, greater than 10 µM; with SF-539 CNS it was greater than 10 µM; in the assay with HL-60(TB) leukemia, greater than 100 µM; with M19-MEL melanoma, greater than 100 µM. In the assay on DLD-1 colon, this compound returned a TGI greater than 100 µM.
